From patent US20250066371A1, “FLUOROALKOXYALKYLENE-DIHYDROIMIDAZO[5,1-D]TETRAZINONE COMPOUNDS AND RELATED COMPOUNDS AND THEIR USE IN TREATING MEDICAL CONDITIONS” (priority 2023, published 2025)

Tests used:
Experiment in all cases: Cell panel nuclear dye assay
Assay type in all cases: cell-based
[1] = tested on: SU-DHL-8; settings: Homo sapiens, 120 h, Lymphoma (large cell), 5-day incubation
Method: (§1) Cells were grown in RPMI1640, 10% FBS, 2 mM L-alanyl-L-glutamine, 1 mM Na pyruvate, or a special medium. Cells were seeded into 384-well plates and incubated in a humidified atmosphere of 5% CO2 at 37° C. Compound was added the day following cell seeding. At the same time, a time zero untreated cell plate was generated. After a 5-day incubation period, cells were fixed and stained to allow fluorescence imaging of nuclei.
(§2) Compounds were serially diluted in 2-fold steps from the highest test concentration specified, and assayed over 10 concentrations with a maximum assay concentration of 0.1% DMSO. Automated fluorescence microscopy was carried out using a Molecular Devices ImageXpress Micro XL high-content imager, and images were collected with a 4× objective. 16-bit TIFF images were acquired and analyzed with MetaXpress 5.1.0.41 software.
(§3) Cell proliferation was measured by the fluorescence intensity of an incorporated nuclear dye. The output is referred to as the relative cell count, where the measured nuclear intensity is transformed to percent of control (POC) using the following formula: […]
(§4) Cell count IC50 is the test compound concentration at 50% of maximal possible response. EC50 is the test compound concentration at the curve inflection point or half the effective response (parameter C of the fitted curve solution). GI50 is the concentration needed to reduce the observed growth by half (midway between the curve maximum and the time zero value). Activity area is an estimate of the integrated area above the curve. Activity area values range from 0-10, where a value of zero indicates no inhibition of proliferation at all concentrations, and a value of 10 indicates complete inhibition of proliferation at all concentrations. In rare instances, values <0 or >10 may be observed. In these instances, values <0 should be considered as equivalent to 0, whereas values >10 should be considered equivalent to 10.

[2] = tested on: SU-DHL-10; settings: Homo sapiens, SU-DHL10, 120 h, Lymphoma (large cell), 5-day incubation
Method: as §1, §2, §3, §4

[3] = tested on: A-253; settings: Homo sapiens, A253, 120 h, Head & neck (epidermoid carcinoma, salivary gland), 5-day incubation
Method: as §1, §2, §3, §4

[4] = tested on: ST486; settings: Homo sapiens, 120 h, Lymphoma (Burkitt's), 5-day incubation
Method: as §1, §2, §3, §4

[5] = tested on: T24; settings: Homo sapiens, T-24, 120 h, Bladder, 5-day incubation
Method: as §1, §2, §3, §4

[6] = tested on: WM-266-4; settings: Homo sapiens, 120 h, Melanoma, 5-day incubation
Method: as §1, §2, §3, §4

[7] = tested on: SK-N-AS; settings: Homo sapiens, 120 h, Neuroblastoma, 5-day incubation
Method: as §1, §2, §3, §4

[8] = tested on: CCF-STTG1; settings: Homo sapiens, 120 h, Glioma (astrocytoma), 5-day incubation
Method: as §1, §2, §3, §4

[9] = tested on: 639-V; settings: Homo sapiens, 120 h, Bladder (ureter), 5-day incubation
Method: as §1, §2, §3, §4

[10] = tested on: MT-3; settings: 120 h, Colon, 5-day incubation
Method: as §1, §2, §3, §4

[11] = tested on: 5637; settings: 120 h, Bladder, 5-day incubation
Method: as §1, §2, §3, §4

[12] = tested on: Colo 320DM; settings: Homo sapiens, 120 h, Colon, 5-day incubation
Method: as §1, §2, §3, §4

[13] = tested on: KHOS-240S; settings: 120 h, Osteosarcoma, 5-day incubation
Method: as §1, §2, §3, §4

[14] = tested on: SHP-77; settings: Homo sapiens, SHP77, 120 h, Lung (SCLC), 5-day incubation
Method: as §1, §2, §3, §4

[15] = tested on: SCC-4; settings: Homo sapiens, 120 h, Head & neck (squamous cell carcinoma, tongue), 5-day incubation
Method: as §1, §2, §3, §4

[16] = tested on: C32TG; settings: 120 h, Melanoma, 5-day incubation
Method: as §1, §2, §3, §4

[17] = tested on: BCP-1; settings: 120 h, Lymphoma (B-cell), 5-day incubation
Method: as §1, §2, §3, §4

[18] = tested on: TUR; settings: 120 h, Lymphoma (histiocytic), 5-day incubation
Method: as §1, §2, §3, §4

[19] = tested on: SH-4; settings: Homo sapiens, 120 h, Melanoma, 5-day incubation
Method: as §1, §2, §3, §4

[20] = tested on: A172; settings: Homo sapiens, A 172, 120 h, Glioma (glioblastoma), 5-day incubation
Method: as §1, §2, §3, §4

[21] = tested on: OE33; settings: Homo sapiens, 120 h, Head & neck (esophageal carcinoma), 5-day incubation
Method: as §1, §2, §3, §4

[22] = tested on: DB; settings: Homo sapiens, 120 h, Lymphoma (B-cell), 5-day incubation
Method: as §1, §2, §3, §4

[23] = tested on: CRO-AP2; settings: Homo sapiens, 120 h, Lymphoma, 5-day incubation
Method: as §1, §2, §3, §4

[24] = tested on: Jiyoye; settings: Homo sapiens, 120 h, Lymphoma (Burkitt's), 5-day incubation
Method: as §1, §2, §3, §4

[25] = tested on: A427; settings: Homo sapiens, A-427, 120 h, Lung (NSCLC), 5-day incubation
Method: as §1, §2, §3, §4

For NC(=O)c1ncn2c(=O)n(CCOC(F)(F)F)nnc12 [Compound I-1, 4-Oxo-3-(2-(trifluoromethoxy)ethyl)-3,4-dihydroimidazo[5,1-d][1,2,3,5]tetrazine-8-carboxamide], the EC50 [1] was no more than 30 µM, the IC50 [1] was no more than 30 µM and the EC50 [2] was no more than 30 µM. It also gave an IC50 [2] of 30 to 70 µM, an EC50 [3] of 70 to 150 µM and an IC50 [3] of 70 to 150 µM. For the same compound, the EC50 [4] was no more than 30 µM, the IC50 [4] was no more than 30 µM and the EC50 [5] was 30 to 70 µM. For the same compound, the IC50 [5] was greater than 150 µM, the EC50 [6] was 30 to 70 µM and the IC50 [6] was 30 to 70 µM. It also gave an EC50 [7] greater than 150 µM, an IC50 [7] greater than 150 µM and an EC50 [8] of no more than 30 µM. The IC50 [8] was 30 to 70 µM, the EC50 [9] was no more than 30 µM and the IC50 [9] was no more than 30 µM. It also gave an EC50 [10] of no more than 30 µM, an IC50 [10] of no more than 30 µM and an EC50 [11] of 30 to 70 µM. It also gave an IC50 [11] of 30 to 70 µM, an EC50 [12] of 30 to 70 µM and an IC50 [12] of 30 to 70 µM. For the same compound, the EC50 [13] was greater than 150 µM, the IC50 [13] was greater than 150 µM and the EC50 [14] was 30 to 70 µM. It also gave an IC50 [14] of 70 to 150 µM, an EC50 [15] of no more than 30 µM and an IC50 [15] greater than 150 µM. It also gave an EC50 [16] of no more than 30 µM, an IC50 [16] of no more than 30 µM and an EC50 [17] of no more than 30 µM. For the same compound, the IC50 [17] was no more than 30 µM, the EC50 [18] was no more than 30 µM and the IC50 [18] was no more than 30 µM. For the same compound, the EC50 [19] was 30 to 70 µM, the IC50 [19] was 30 to 70 µM and the EC50 [20] was 30 to 70 µM. For the same compound, the IC50 [20] was 70 to 150 µM, the EC50 [21] was 30 to 70 µM and the IC50 [21] was 30 to 70 µM. The EC50 [22] was no more than 30 µM, the IC50 [22] was 30 to 70 µM and the EC50 [23] was no more than 30 µM. For the same compound, the IC50 [23] was no more than 30 µM, the EC50 [24] was 30 to 70 µM and the IC50 [24] was 30 to 70 µM. For the same compound, the EC50 [25] was 30 to 70 µM and the IC50 [25] was 30 to 70 µM.
